Reference: ChEMBL document CHEMBL5136972, “Targeting SARS-CoV-2 Proteases and Polymerase for COVID-19 Treatment: State of the Art and Future Opportunities” (J Med Chem, 2022)

Tests used:
[1] = Inhibition of MERS CoV 3CL protease using MCA-AVLQSGFR-Lys(Dnp)-Lys-NH2 as substrate by fluorescence based analysis; parameters: species or system Middle East respiratory syndrome-related coronavirus
[2] = tested on: Human coronavirus 229E; assay: Antiviral activity against HCoV-229E infected in African green monkey Vero cells assessed as inhibition of plaque formation by viral plaque assay; type: functional, organism-based
[3] = tested on: Feline infectious peritonitis virus; assay: Antiviral activity against FIPV infected in African green monkey Vero cells assessed as inhibition of plaque formation by viral plaque assay; type: functional, organism-based; settings: Alphacoronavirus 1, Vero
[4] = tested on: Murine hepatitis virus; assay: Antiviral activity against MHV-A59 infected in African green monkey Vero cells assessed as inhibition of plaque formation by viral plaque assay; type: functional, organism-based; settings: Murine coronavirus
[5] = tested on: Murine hepatitis virus; assay: Antiviral activity against MHV infected in African green monkey Vero cells assessed as inhibition of plaque formation by viral plaque assay; type: functional, organism-based; settings: Murine coronavirus
[6] = Cytotoxicity against African green monkey Vero cells; type: toxicity, cell-based; settings: chlorocebus sabaeus
[7] = tested on: SARS-CoV-2; assay: Antiviral activity against SARS CoV-2 assessed as inhibition of virus-induced cytopathic effect by neutral red uptake assay; type: functional, organism-based; settings: Severe acute respiratory syndrome coronavirus 2
[8] = Half life in mouse at 2 mg/kg, IM; type: ADME, organism-based; settings: in vivo
[9] = Half life in Sprague-Dawley […] measured up to 24 hrs; type: ADME, organism-based
[10] = Cytotoxicity against African green monkey Vero E6 cells by CCK-8 assay; type: toxicity, cell-based, Vero C1008; settings: chlorocebus sabaeus
[11] = Inhibition of FIPV 3CL protease using dabcyl-KTSAVLQ/SGFRKME-edans as substrate incubated for 30 mins followed by substrate addition measured after 30 mins by FRET assay; parameters: species or system Feline infectious peritonitis virus
[12] = Inhibition of TGEV 3CL protease using Dabcyl-KTSAVLQ/SGFRKME-Edans as substrate incubated for 30 mins followed by substrate addition measured after 30 mins by FRET assay; parameters: species or system Transmissible gastroenteritis virus
[13] = Inhibition of MERS 3CL protease using Dabcyl-KTSAVLQ/SGFRKME-Edans as substrate incubated for 30 mins followed by substrate addition measured after 30 mins by FRET assay; parameters: species or system Middle East respiratory syndrome-related coronavirus
[14] = target: Replicase polyprotein 1ab (Severe acute respiratory syndrome coronavirus 2, UniProt P0DTD1); assay: Inhibition of recombinant SARS CoV-2 PL protease incubated for 60 mins by fluorescence based analysis
[15] = tested on: SARS-CoV; assay: Antiviral activity against SARS CoV infected in HAE cells measured after 48 hrs by CellTiter-Glo assay; type: functional, organism-based; settings: Severe acute respiratory syndrome-related coronavirus
[16] = tested on: Middle East respiratory syndrome-related coronavirus; assay: Antiviral activity against […] CoV infected in HAE cells measured after 48 hrs by CellTiter-Glo assay; type: functional, organism-based
[17] = tested on: SARS-CoV-2; assay: Antiviral activity against SARS CoV-2 infected in African green monkey Vero E6 cells assessed as inhibition of virus-induced cytopathic effect measured after 72 hrs by Reed-Muench method; type: functional, organism-based; settings: Severe acute respiratory syndrome coronavirus 2, Vero C1008, 72 h
[18] = tested on: SARS-CoV-2; assay: Antiviral activity against SARS CoV-2 infected in human Huh-7 cells measured up to 72 hrs by plaque assay; type: functional, organism-based; settings: Severe acute respiratory syndrome coronavirus 2, Huh-7, 72 h
[19] = in vivo; settings: C57BL/6J (Ces1c knockout), mouse, sc, 25 mg/kg
[20] = in vivo; settings: C57BL/6J (wild type), mouse, sc, 25 mg/kg
[21] = tested on: SARS-CoV-2; assay: Antiviral activity against SARS CoV-2 infected in African green monkey Vero cells assessed as inhibition of plaque formation by viral plaque assay; type: functional, organism-based; settings: Severe acute respiratory syndrome coronavirus 2, Vero
[22] = Clearance in CD-1 mouse at 5 to 20 mg/kg, ip measured after up to 24 hrs by LC-MS/MS analysis; type: ADME, organism-based; settings: in vivo, dose 5-20 mg/kg
[23] = Inhibition of MERS CoV 3CL protease expressed in Escherichia coli BL21-Gold DE3 cells by FRET assay; parameters: species or system Middle East respiratory syndrome-related coronavirus
[24] = Half life in CD-1 mouse at 3 mg/kg, sc measured after up to 24 hrs by HPLC-MS/MS analysis; type: ADME, organism-based; settings: in vivo
[25] = Cmax in CD-1 mouse at 3 mg/kg, sc measured after up to 24 hrs by HPLC-MS/MS analysis; type: ADME, organism-based; parameters: time < 24 hrs, dose 3 mg/kg, route sc; settings: in vivo

Compound: Cc1cc(C(=O)N[C@@H](C)C(=O)N[C@H](C(=O)N[C@@H](CC(C)C)C(=O)N[C@H](/C=C/C(=O)OCc2ccccc2)C[C@@H]2CCNC2=O)C(C)C)no1
- IC50 [1]: 300 nM
- EC50 [2]: 4000 nM
- EC50 [3]: 8800 nM
- EC50 [4]: 2700 nM
- EC50 [5]: 3400 nM
- CC50 [6]: > 133000 nM

Compound: Nc1ncnc2c([C@@H]3N[C@H](CO)[C@@H](O)[C@H]3O)c[nH]c12
- EC50 [7]: 57700 nM
- half-life [8]: < 5 min
- half-life [9]: 372 min

Compound: CC(C)C[C@H](NC(=O)OCc1ccccc1)C(=O)N[C@@H](C[C@@H]1CCNC1=O)C(O)S(=O)(=O)O (stereo partly specified)
- CC50 [10]: > 100000 nM
- IC50 [11]: 720 nM
- IC50 [12]: 820 nM
- IC50 [13]: 1560 nM

Compound: O=C(Nc1ccccc1O)c1ccccc1[Se][Se]c1ccccc1C(=O)Nc1ccccc1O
- IC50 [14]: 34000 nM

Compound: CCC(CC)COC(=O)[C@H](C)N[P@](=O)(OC[C@H]1O[C@@](C#N)(c2ccc3c(N)ncnn23)[C@H](O)[C@@H]1O)Oc1ccccc1
- EC50 [15]: 69 nM
- EC50 [16]: 74 nM
- EC50 [17]: 651 nM
- EC50 [18]: 3 nM
- half-life at 144 h [19]: 25 min
- half-life at 144 h [20]: < 5 min

Compound: O=C[C@H](C[C@@H]1CCNC1=O)NC(=O)[C@H](Cc1cccc(F)c1)NC(=O)c1cc2ccccc2[nH]1
- EC50 [21]: 720 nM
- CC50 [10]: > 100000 nM
- CL/F [22]: 21 mL/min/kg

Compound: CC(C)(C)OC(=O)Nc1cccn([C@@H](CC2CC2)C(=O)N[C@@H](C[C@@H]2CCNC2=O)C(=O)C(=O)NCc2ccccc2)c1=O
- IC50 [23]: 580 nM
- half-life [24]: < 120 min
- Cmax [25]: 126 ng/mL
